Tested on: SARS-CoV-2 strain USA-WA1/2020
Test: microbe, parasite or virus in culture
Type: cell-based
Settings: Severe acute respiratory syndrome coronavirus 2, HeLa-ACE2, 24 h, HeLa-ACE2 cells, SARS-CoV-2 infection, 24 h; bound printed in cell; read-out: EC50, uM (Hela)

Compound | EC50 [µM]
C[C@@H]1CN(C(=O)C(=O)NC(C)(C)C(F)(F)F)C[C@H]1C(=O)N[C@@H](C[C@@H]1CCNC1=O)C(=O)COC(F)(F)F [Compound 293, (3S,4S)-4-methyl-N-((S)-3-oxo-1-((S)-2-oxopyrrolidin-3-yl)-4-(trifluoromethoxy)butan-2-yl)-1-(2-oxo-2-((1,1,1-trifluoro-2-methylpropan-2-yl)amino)acetyl)-pyrrolidine-3-carboxamide] | > 1
O=C1NCC[C@H]1C[C@@H](NC(=O)[C@@H]1C[C@H]2C[C@H]2N1C(=O)[C@@H]1CCCO1)C(=O)COC(F)(F)F [Compound 326, (1R,3S,5R)-N-(3-oxo-1-((S)-2-oxopyrrolidin-3-yl)-4-(trifluoromethoxy)butan-2-yl)-2-((S)-tetrahydrofuran-2-carbonyl)-2-azabicyclo[3.1.0]-hexane-3-carboxamide] | > 1
O=C1NCC[C@H]1C[C@H](NC(=O)[C@@H]1C[C@H]2C[C@H]2N1C(=O)[C@H]1CCCO1)C(=O)COC(F)(F)F [Compound 303, (1R,3S,5R)-N-((S)-3-oxo-1-((S)-2-oxopyrrolidin-3-yl)-4-(trifluoromethoxy)butan-2-yl)-2-((R)-tetrahydrofuran-2-carbonyl)-2-azabicyclo[3.1.0]-hexane-3-carboxamide] | > 1

Same assay, conditions: Severe acute respiratory syndrome coronavirus 2, HeLa-ACE2, 24 h, HeLa-ACE2 cells, SARS-CoV-2 infection, 24 h; cells given as a bound; read-out: EC50, uM (Hela)

Compound | EC50 [µM]
CC(C)C[C@H](NC(=O)C(=O)Nc1ccccc1)C(=O)N[C@@H](C[C@@H]1CCNC1=O)C(O)COc1c(F)c(F)cc(F)c1F (stereo partly drawn) [Compound 49, N1-((2S)-1-(((2S)-3-hydroxy-1-((S)-2-oxopyrrolidin-3-yl)-4-(2,3,5,6-tetrafluorophenoxy)butan-2-yl)amino)-4-methyl-1-oxopentan-2-yl)-N2-phenyloxalamide] | > 1

Same assay, conditions: Severe acute respiratory syndrome coronavirus 2, HeLa-ACE2, 24 h, HeLa-ACE2 cells, SARS-CoV-2 infection, 24 h; class symbols; read-out: EC50, uM (Hela)

Compound | EC50 [µM]
CC(C)C[C@H](NC(=O)C(=O)Nc1ccccn1)C(=O)N[C@@H](C[C@@H]1CCNC1=O)C(=O)COc1c(F)c(F)cc(F)c1F [Compound 45, N1-((S)-4-methyl-1-oxo-1-(((S)-3-oxo-1-((S)-2-oxopyrrolidin-3-yl)-4-(2,3,5,6-tetrafluorophenoxy)butan-2-yl)amino)pentan-2-yl)-N2-(pyridin-2-yl)oxalamide] | 0.05 to 0.2
Cc1cccc(C)c1NC(=O)C(=O)N[C@@H](CC(C)C)C(=O)N[C@@H](C[C@@H]1CCNC1=O)C(=O)COC(F)(F)F [Compound 152, N1-(2,6-dimethylphenyl)-N2-((S)-4-methyl-1-oxo-1-(((S)-3-oxo-1-((S)-2-oxopyrrolidin-3-yl)-4-(trifluoromethoxy)butan-2-yl)amino)pentan-2-yl)oxalamide] | < 0.05
CC(C)[C@H](O)C(=O)N1CC2(CC2)C[C@H]1C(=O)N[C@@H](C[C@@H]1CCNC1=O)C(=O)COC(F)(F)F [Compound 358, (S)-5-((S)-2-hydroxy-3-methylbutanoyl)-N-((S)-3-oxo-1-((S)-2-oxopyrrolidin-3-yl)-4-(trifluoromethoxy)butan-2-yl)-5-azaspiro-[2.4]heptane-6-carboxamide] | 0.05 to 0.2
CC(C)C[C@H](NC(=O)C(=O)NC1CCC(F)(F)CC1)C(=O)N[C@@H](C[C@@H]1CCNC1=O)C(=O)COc1c(F)c(F)cc(F)c1F [Compound 151, N^1-(4,4-difluorocyclohexyl)-N^2—((S)-4-methyl-1-oxo-1-(((S)-3-oxo-1-((S)-2-oxopyrrolidin-3-yl)-4-(2,3,5,6-tetrafluorophenoxy)butan-2-yl)amino)pentan-2-yl)oxalamide] | 0.05 to 0.2
CC(C)C[C@H](NC(=O)c1cc2cnccc2[nH]1)C(=O)N[C@@H](C[C@@H]1CCNC1=O)C(=O)COc1c(F)c(F)cc(F)c1F [Compound 29, N-((S)-4-methyl-1-oxo-1-(((S)-3-oxo-1-((S)-2-oxopyrrolidin-3-yl)-4-(2,3,5,6-tetrafluorophenoxy)butan-2-yl)amino)pentan-2-yl)-1H-pyrrolo[3,2-c]pyridine-2-carboxamide] | < 0.05
CC(C)C[C@H](NC(=O)C1(C)CCCO1)C(=O)N[C@@H](C[C@@H]1CCNC1=O)C(=O)COC(F)(F)F (stereo partly drawn) [Compound 214, 2-methyl-N-((S)-4-methyl-1-oxo-1-(((S)-3-oxo-1-((S)-2-oxopyrrolidin-3-yl)-4-(trifluoromethoxy)butan-2-yl)amino)pentan-2-yl)tetrahydrofuran-2-carboxamide] | 0.05 to 0.2
CC(C)C[C@H](NC(=O)C(=O)Nc1c(C2CC2)cccc1C1CC1)C(=O)N[C@@H](C[C@@H]1CCNC1=O)C(=O)COC(F)(F)F [Compound 185, N1-(2,6-dicyclopropylphenyl)-N2-((S)-4-methyl-1-oxo-1-(((S)-3-oxo-1-((S)-2-oxopyrrolidin-3-yl)-4-(trifluoromethoxy)butan-2-yl)amino)pentan-2-yl)oxalamide] | < 0.05
COc1cccc2c1OC(C(=O)N[C@@H](CC(C)C)C(=O)N[C@@H](C[C@@H]1CCNC1=O)C(=O)COC(F)(F)F)C2 (stereo partly drawn) [Compound 255, 7-methoxy-N-((S)-4-methyl-1-oxo-1-(((S)-3-oxo-1-((S)-2-oxopyrrolidin-3-yl)-4-(trifluoromethoxy)butan-2-yl)amino)pentan-2-yl)-2,3-dihydrobenzofuran-2-carboxamide] | < 0.05

Same assay, conditions: Severe acute respiratory syndrome coronavirus 2, HeLa-ACE2, 24 h, HeLa-ACE2 cells, SARS-CoV-2 infection, 24 h; read-out: EC50, uM (Hela)

Compound | EC50 [µM]
O=C1NCC[C@H]1C[C@H](NC(=O)[C@@H]1CC2(CC2)CN1C(=O)[C@@H](O)CC(C(F)(F)F)C(F)(F)F)C(=O)COC(F)(F)F [Compound 745, (S)-N-((S)-3-oxo-1-((S)-2-oxopyrrolidin-3-yl)-4-(trifluoromethoxy)butan-2-yl)-5-((S)-5,5,5-trifluoro-2-hydroxy-4-(trifluoromethyl)pentanoyl)-5-azaspiro[2.4]heptane-6-carboxamide] | < 0.05
O=C(N[C@H]1[C@@H]2COC[C@@H]21)C(=O)N1C[C@@H]2CCC[C@@H]2[C@H]1C(=O)N[C@@H](C[C@@H]1CCNC1=O)C(=O)COC(F)(F)F [Compound 548, (1S,3aR,6aS)-2-(2-(((1R,5S,6r)-3-oxabicyclo[3.1.0]-hexan-6-yl)amino)-2-oxoacetyl)-N-((S)-3-oxo-1-((S)-2-oxopyrrolidin-3-yl)-4-(trifluoromethoxy)butan-2-yl)octahydrocyclo-penta[c]pyrrole-1-carboxamide] | 0.2 to 0.5
O=C(Nc1cccc(F)c1F)C(=O)N1CC2(CC2)C[C@H]1C(=O)N[C@@H](C[C@@H]1CCNC1=O)C(=O)COC(F)(F)F [Compound 598, (S)-5-(2-((2,3-difluorophenyl)amino)-2-oxoacetyl)-N-((S)-3-oxo-1-((S)-2-oxopyrrolidin-3-yl)-4-(trifluoromethoxy)butan-2-yl)-5-azaspiro[2.4]heptane-6-carboxamide] | < 0.05
C[C@@](O)(C(=O)N1CC2(CC2)C[C@H]1C(=O)N[C@@H](C[C@@H]1CCNC1=O)C(=O)COC(F)(F)F)C(F)(F)F [Compound 722, (S)-N-((S)-3-oxo-1-((S)-2-oxopyrrolidin-3-yl)-4-(trifluoromethoxy)butan-2-yl)-5-((R)-3,3,3-trifluoro-2-hydroxy-2-methylpropanoyl)-5-azaspiro[2.4]heptane-6-carboxamide] | 0.05 to 0.2
O=C1NCC[C@H]1C[C@H](NC(=O)[C@@H]1CC2(CC2)CN1C(=O)c1ccccc1)C(=O)COC(F)(F)F [Compound 694, (S)-5-benzoyl-N-((S)-3-oxo-1-((S)-2-oxopyrrolidin-3-yl)-4-(trifluoromethoxy)butan-2-yl)-5-azaspiro[2.4]heptane-6-carboxamide] | 0.05 to 0.2
O=C(Nc1ccc(Cl)cc1F)C(=O)N1CC2(CC2)C[C@H]1C(=O)N[C@@H](C[C@@H]1CCNC1=O)C(=O)COC(F)(F)F [Compound 591, (S)-5-(2-((4-chloro-2-fluorophenyl)amino)-2-oxoacetyl)-N-((S)-3-oxo-1-((S)-2-oxopyrrolidin-3-yl)-4-(trifluoromethoxy)butan-2-yl)-5-azaspiro[2.4]-heptane-6-carboxamide] | < 0.05
CC1(C)CCc2onc(C(=O)N3CC4(CC4)C[C@H]3C(=O)N[C@@H](C[C@@H]3CCNC3=O)C(=O)COC(F)(F)F)c2C1 [Compound 568, (S)-5-(5,5-dimethyl-4,5,6,7-tetrahydro-benzo[d]isoxazole-3-carbonyl)-N-((S)-3-oxo-1-((S)-2-oxopyrrolidin-3-yl)-4-(trifluoromethoxy)butan-2-yl)-5-azaspiro[2.4]-heptane-6-carboxamide] | 0.05 to 0.2
O=C1NCC[C@H]1C[C@H](NC(=O)[C@@H]1[C@H]2CCC[C@H]2CN1C(=O)c1noc2ccccc12)C(=O)COC(F)(F)F [Compound 557, (1S,3aR,6aS)-2-(benzo[d]isoxazole-3-carbonyl)-N-((S)-3-oxo-1-((S)-2-oxopyrrolidin-3-yl)-4-(trifluoromethoxy)butan-2-yl)octahydro-cyclopenta[c]pyrrole-1-carboxamide] | < 0.05
CCC(CC)C(=O)N1CC2(CC2)C[C@H]1C(=O)N[C@@H](C[C@@H]1CCNC1=O)C(=O)COC(F)(F)F [Compound 448, (S)-5-(2-ethylbutanoyl)-N-((S)-3-oxo-1-((S)-2-oxopyrrolidin-3-yl)-4-(trifluoromethoxy)butan-2-yl)-5-azaspiro[2.4]heptane-6-carboxamide] | 0.05 to 0.2
CC(C)C[C@H](NC(=O)c1cc(-c2ccccn2)on1)C(=O)N[C@@H](C[C@@H]1CCNC1=O)C(=O)COC(F)(F)F [Compound 464, N-((S)-4-methyl-1-oxo-1-(((S)-3-oxo-1-((S)-2-oxopyrrolidin-3-yl)-4-(trifluoromethoxy)butan-2-yl)amino)pentan-2-yl)-5-(pyridin-2-yl)isoxazole-3-carboxamide] | < 0.05
O=C(Nc1ccccc1F)C(=O)N1CCCCC[C@H]1C(=O)N[C@@H](C[C@@H]1CCNC1=O)C(=O)COC(F)(F)F [Compound 584, (S)-1-(2-((2-fluorophenyl)amino)-2-oxoacetyl)-N-((S) -3-oxo-1-((S)-2-oxopyrrolidin-3-yl)-4-(trifluoromethoxy)butan-2-yl)azepane-2-carboxamide] | < 0.05
